In patent US20070254905A1, “Pharmaceutical Formulation for Increasing Solubility of 10-Hydroxycamptothecin Compounds in Non-Aqueous Polar Solvents” (priority 2004, published 2007):
Converted amounts (≈) assume the structure as drawn. Like-named read-outs stand apart in the source and are kept apart here.

Columns and labels:
[1] = assay type: physicochemical
[2] = SN-38 content, lactone/carboxy anion ratio and pH after dilution of surfactant composition with aqueous solution; assay type: physicochemical; conditions: tromethamine/ethanol/cremophore EL solution, refrigerator 1 week, diluted with 0.9% saline to 5 Ml
[3] = Lyophilized SN-38 formulation reconstituted with water for injection, HPLC and pH; assay type: physicochemical
Procedure: Alternatively, a 10-hydroxycamptothecin compound and an amine compound are solubilized in non-aqueous polar solvent, and polymer surfactant is added thereto to prepare a solution. Next, a caking agent for lyophilization is added thereto to prepare a lyophilized formulation. As a specific example, 250 mg of copolymer (mPEG-PLA) of polyethyleneglycol (molecular weight: 2,000 daltons) and polylactic acid (molecular weight: 1,800 daltons) maybe added to a solution in which SN-38 and tromethamine are solubilized in anhydrous ethanol as above, to prepare a pure solution, and then 4 Ml of aqueous mannitol solution (100 mg/Ml) as a caking agent for lyophilization is added thereto, which is filtered with a filter having a pore size of 200 nm, and lyophilized. This lyophilized formulation is reconstituted with 4 Ml of water for injection, and then analyzed by HPLC to confirm that the concentration of SN-38 was 205 μg/Ml, 92% or more of SN-38 existed in the form of a lactone, and the pH of the aqueous solution was 8.4.
12 mg of tromethamine was dissolved in 1 ml of anhydrous ethanol, and 1 mg of SN-38 was added thereto and heated to 60[…] to prepare a pure solution of orange color. Subsequently, the block copolymer of methoxypolyethyleneglycol and polylactic acid, and 200 mg of mPEG-PLA (mPEG molecular weight: 2,000 daltons, PLA molecular weight: 1,800 daltons) were added thereto to prepare a pure solution. Then, 5 ml of aqueous mannitol solution (50 mg/ml) was added thereto, mixed, filtered with a filter having a pore size of 200 nm, and lyophilized to prepare a lyophilized formulation.
Injectable water of 4 Ml was added to the lyophilized vial to reconstitute the lyophilized formulation.

topoisomerase □ = molecular target: T1, topoisomerase □ (Homo sapiens, UniProt P11387); conditions: relative to CPT-11; cited from earlier work
T1 sequence (P11387 1-765): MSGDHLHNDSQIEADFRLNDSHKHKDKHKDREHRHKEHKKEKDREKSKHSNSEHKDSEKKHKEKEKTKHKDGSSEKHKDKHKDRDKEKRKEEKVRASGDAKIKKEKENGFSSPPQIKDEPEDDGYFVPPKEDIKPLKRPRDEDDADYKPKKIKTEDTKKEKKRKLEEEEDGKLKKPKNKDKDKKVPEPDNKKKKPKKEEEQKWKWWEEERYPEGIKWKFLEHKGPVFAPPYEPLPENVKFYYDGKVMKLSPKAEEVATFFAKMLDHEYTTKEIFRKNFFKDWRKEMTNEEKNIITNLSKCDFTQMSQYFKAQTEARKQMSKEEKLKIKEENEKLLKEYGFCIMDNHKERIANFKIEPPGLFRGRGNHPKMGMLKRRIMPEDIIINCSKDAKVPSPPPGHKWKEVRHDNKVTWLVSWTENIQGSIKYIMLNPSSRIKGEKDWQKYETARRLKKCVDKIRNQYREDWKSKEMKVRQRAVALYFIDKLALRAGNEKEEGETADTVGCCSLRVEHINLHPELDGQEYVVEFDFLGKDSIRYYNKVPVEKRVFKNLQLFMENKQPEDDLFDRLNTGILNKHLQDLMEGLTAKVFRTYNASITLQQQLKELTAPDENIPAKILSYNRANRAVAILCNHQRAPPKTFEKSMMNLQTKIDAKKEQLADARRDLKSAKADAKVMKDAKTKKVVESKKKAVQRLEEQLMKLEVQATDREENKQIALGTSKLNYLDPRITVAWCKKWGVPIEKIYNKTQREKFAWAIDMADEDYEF

physchem = conditions: organic solvent or mixture, thermodynamic from solid
[4] = cited from earlier work
acetylcholine = conditions: compared with CPT-11; cited from earlier work
[5] = anhydrous ethanol, 10 equivalents of triethanolamine
[6] = lyophilized with 250 mg mPEG-PLA, tromethamine, mannitol, reconstituted with 4 Ml water for injection

## CCc1c2c(nc3ccc(O)cc13)-c1cc3c(c(=O)n1C2)COC(=O)C3(O)CC (stereo not drawn) [SN-38, 7-ethyl-10-hydroxycamptothecin]
[1]; 1 mg SN-38, 10 mg tromethamine, 1 Ml anhydrous ethanol, 500 mg cremophore EL, diluted with acetonitrile
  SN-38 in the form of a lactone: 100%
[1]; SN-38 1 mg in 1 ml anhydrous ethanol, amine compound 10 equivalents
  Lacton content: 100%
[1]; SN-38 1 mg in 1 ml organic solvent, tromethamine 10 equivalents
  Lacton content: 100%
[1]; [5]
  Form of SN-38 by HPLC analysis: no carboxy anion form was observed
[2]
  Concentration of SN-38: 220 µg/mL
  SN-38 in the form of the lactone: ≥ 95%
  pH of the solution diluted with saline: 8.7
[3]; Example 8: 12 mg tromethamine, 200 mg mPEG-PLA, mannitol, lyophilized, reconstituted with 4 Ml injectable water
  pH of the aqueous solution: 8.4
[3]; Example 8 lyophilized formulation reconstituted with 4 Ml injectable water
  Lactone form of SN-38: 97%
[3]; Example 8 lyophilized formulation reconstituted with 4 Ml injectable water, HPLC
  Drug content: 242 µg/mL
[3]; [6]
  Concentration of SN-38: 205 µg/mL
  SN-38 in the form of a lactone: ≥ 92%
  pH of the aqueous solution: 8.4
Anhydrous ethanol without adding an amine compound
  Solubility of SN-38: a few
[5]
  Solubility of SN-38: about 1 mg/Ml
Topoisomerase □
  Activity for inhibiting topoisomerase □, higher than that of CPT-11: about 1,000 times
physchem; Solubility of SN-38 in ethanol, ethanol, no amine
  solubility at 12 h: 8 µg/mL (≈ 20.4 µM)
physchem; Solubility of SN-38 in ethanol, in the presence of 5 or more equivalents of diethanolamine
  solubility at 12 h: ≥ 1000 µg/mL
physchem; Solubility, SN-38 1 mg in 1 ml anhydrous ethanol, amine compound 10 equivalents, room temperature 12 hours
  solubility at 12 h: ≥ 1000 µg/mL
physchem; Solubility, SN-38 1 mg in 1 ml organic solvent, tromethamine 10 equivalents, room temperature 12 hours
  solubility at 12 h: ≥ 1000 µg/mL
[4]; active lactone form
  Solubility in water of the active lactone form: not more than 10 μg/ml
[4]
  Solubility of SN-38 in water: not more than 10 μg/ml
[4]; inactive carboxy anion form
  Solubility in water of the carboxy anion form: ≥ 4000 µg/mL
acetylcholine
  Effect for inhibiting acetylcholine which causes diarrhea: much lower than that of CPT-11
